Laboratory results reported in ChEMBL document CHEMBL5214900, “Design, Synthesis, and Biological Evaluation of Membrane-Active Bakuchiol Derivatives as Effective Broad-Spectrum Antibacterial Agents” (J Med Chem, 2021).
Values after ≈ are worked out from the molar mass of the structure shown.

Key:
[1] = test system: Staphylococcus aureus; experiment: Antibacterial activity against Staphylococcus aureus ATCC 29213 assessed as inhibition of bacterial growth incubated for 24 hrs by CLSI based broth dilution method; assay type: functional
[2] = test system: Staphylococcus aureus; experiment: Antibacterial activity against methicillin-resistant Staphylococcus aureus N315 assessed as inhibition of bacterial growth incubated for 24 hrs by CLSI based broth dilution method; assay type: functional
[3] = test system: Staphylococcus aureus; experiment: Antibacterial activity against methicillin-resistant Staphylococcus aureus NCTC10442 assessed as inhibition of bacterial growth incubated for 24 hrs by CLSI based broth dilution method; assay type: functional
[4] = test system: Escherichia coli; experiment: Antibacterial activity against Escherichia coli ATCC 25922 assessed as inhibition of bacterial growth incubated for 24 hrs by CLSI based broth dilution method; assay type: functional
[5] = Hemolytic activity in rabbit RBC measured after 1 hrs by multimode reader assay; assay type: toxicity, cell-based, Oryctolagus cuniculus, Erythrocyte; conditions: rabbit red blood cells (erythrocytes)
[6] = test system: Staphylococcus aureus; experiment: Antibacterial activity against Staphylococcus aureus ATCC 29213 assessed as fold increase in MIC incubated for 24 hrs in presence of 140 mM Na+ by CLSI based broth dilution method; assay type: functional
[7] = test system: Staphylococcus aureus; experiment: Antibacterial activity against Staphylococcus aureus ATCC 29213 assessed as fold increase in MIC incubated for 24 hrs in presence of 4.5 mM K+ by CLSI based broth dilution method; assay type: functional
[8] = test system: Staphylococcus aureus; experiment: Antibacterial activity against Staphylococcus aureus ATCC 29213 assessed as fold increase in MIC incubated for 24 hrs in presence of 2.5 mM Ca2+ by CLSI based broth dilution method; assay type: functional
[9] = test system: Staphylococcus aureus; experiment: Antibacterial activity against Staphylococcus aureus ATCC 29213 assessed as fold increase in MIC incubated for 24 hrs in presence of 1 mM Mg2+ by CLSI based broth dilution method; assay type: functional
[10] = test system: Staphylococcus aureus; experiment: Antibacterial activity against Staphylococcus aureus NCTC10442 assessed as fold increase in MIC incubated for 24 hrs in presence of 140 mM Na+ by CLSI based broth dilution method; assay type: functional
[11] = test system: Staphylococcus aureus; experiment: Antibacterial activity against Staphylococcus aureus NCTC10442 assessed as fold increase in MIC incubated for 24 hrs in presence of 4.5 mM K+ by CLSI based broth dilution method; assay type: functional
[12] = test system: Staphylococcus aureus; experiment: Antibacterial activity against Staphylococcus aureus NCTC10442 assessed as fold increase in MIC incubated for 24 hrs in presence of 2.5 mM Ca2+ by CLSI based broth dilution method; assay type: functional
[13] = test system: Staphylococcus aureus; experiment: Antibacterial activity against Staphylococcus aureus NCTC10442 assessed as fold increase in MIC incubated for 24 hrs in presence of 1 mM Mg2+ by CLSI based broth dilution method; assay type: functional
[14] = test system: Acinetobacter baumannii; experiment: Antibacterial activity against Acinetobacter baumannii ATCC 17978 assessed as fold increase in MIC incubated for 24 hrs in presence of 140 mM Na+ by CLSI based broth dilution method; assay type: functional
[15] = test system: Acinetobacter baumannii; experiment: Antibacterial activity against Acinetobacter baumannii ATCC 17978 assessed as fold increase in MIC incubated for 24 hrs in presence of 4.5 mM K+ by CLSI based broth dilution method; assay type: functional
[16] = test system: Acinetobacter baumannii; experiment: Antibacterial activity against Acinetobacter baumannii ATCC 17978 assessed as fold increase in MIC incubated for 24 hrs in presence of 2.5 mM Ca2+ by CLSI based broth dilution method; assay type: functional
[17] = test system: Acinetobacter baumannii; experiment: Antibacterial activity against Acinetobacter baumannii ATCC 17978 assessed as fold increase in MIC incubated for 24 hrs in presence of 1 mM Mg2+ by CLSI based broth dilution method; assay type: functional
[18] = test system: Escherichia coli; experiment: Antibacterial activity against Escherichia coli ATCC 25922 assessed as fold increase in MIC incubated for 24 hrs in presence of 140 mM Na+ by CLSI based broth dilution method; assay type: functional
[19] = test system: Escherichia coli; experiment: Antibacterial activity against Escherichia coli ATCC 25922 assessed as fold increase in MIC incubated for 24 hrs in presence of 4.5 mM K+ by CLSI based broth dilution method; assay type: functional
[20] = test system: Escherichia coli; experiment: Antibacterial activity against Escherichia coli ATCC 25922 assessed as fold increase in MIC incubated for 24 hrs in presence of 2.5 mM Ca2+ by CLSI based broth dilution method; assay type: functional
[21] = test system: Escherichia coli; experiment: Antibacterial activity against Escherichia coli ATCC 25922 assessed as fold increase in MIC incubated for 24 hrs in presence of 1 mM Mg2+ by CLSI based broth dilution method; assay type: functional
[22] = test system: Pseudomonas aeruginosa; experiment: Antibacterial activity against Pseudomonas aeruginosa ATCC 9027 assessed as inhibition of bacterial growth incubated for 24 hrs by CLSI based broth dilution method; assay type: functional
[23] = test system: Acinetobacter baumannii; experiment: Antibacterial activity against Acinetobacter baumannii ATCC 17978 assessed as inhibition of bacterial growth incubated for 24 hrs by CLSI based broth dilution method; assay type: functional
[24] = test system: Acinetobacter baumannii; experiment: Antibacterial activity against Acinetobacter baumannii R2889 assessed as inhibition of bacterial growth incubated for 24 hrs by CLSI based broth dilution method; assay type: functional
[25] = test system: Klebsiella pneumoniae; experiment: Antibacterial activity against Klebsiella pneumoniae ATCC 10031 assessed as inhibition of bacterial growth incubated for 24 hrs by CLSI based broth dilution method; assay type: functional
[26] = test system: Klebsiella pneumoniae; experiment: Antibacterial activity against Klebsiella pneumoniae ATCC 14581 assessed as inhibition of bacterial growth incubated for 24 hrs by CLSI based broth dilution method; assay type: functional

Structure (SMILES)	MIC [1] [µg/mL]	MIC [2] [µg/mL]	MIC [3] [µg/mL]	MIC [4] [µg/mL]	HC50 at 1 h [5] [µg/mL]	fold change (FC) [6]	fold change (FC) [7]	fold change (FC) [8]	fold change (FC) [9]	fold change (FC) [10]	fold change (FC) [11]	fold change (FC) [12]	fold change (FC) [13]	fold change (FC) [14]	fold change (FC) [15]	fold change (FC) [16]	fold change (FC) [17]	fold change (FC) [18]	fold change (FC) [19]	fold change (FC) [20]	other results
C=C[C@@](C)(/C=C/c1ccc(OCCCCN2CCNCCNCCNCCNCC2)cc1)CCC=C(C)C	1.56 (≈ 2.97 µM)	0.78 (≈ 1.48 µM)	1.56 (≈ 2.97 µM)	6.25 (≈ 11.9 µM)	75.2	<2	<2	<2	<2	<2	<2	<2	<2	<2	<2	<2	<2	<2	<2	<2	fold change (FC) [21]: <2
C=C[C@@](C)(/C=C/c1ccc(OCCCCN(C)CCCN(C)CCCNC)cc1)CCC=C(C)C	1.56 (≈ 3.22 µM)	0.78 (≈ 1.61 µM)	1.56 (≈ 3.22 µM)	1.56 (≈ 3.22 µM)	56.6	<2	<2	<2	<2	<2	<2	<2	<2	<2	<2	<2	<2	<2	<2	<2	MIC [22]: 3.12 µg/mL (≈ 6.46 µM); MIC [23]: 3.12 µg/mL (≈ 6.46 µM); MIC [24]: 3.12 µg/mL (≈ 6.46 µM); MIC [25]: 1.56 µg/mL (≈ 3.22 µM); MIC [26]: 1.56 µg/mL (≈ 3.22 µM); fold change (FC) [21]: <2
C=C[C@@](C)(/C=C/c1ccc(OCCCCN2CCCNCCNCCCNCC2)cc1)CCC=C(C)C	0.78 (≈ 1.53 µM)	0.78 (≈ 1.53 µM)	0.78 (≈ 1.53 µM)	3.12 (≈ 6.12 µM)	62.7	<2	<2	<2	<2	<2	<2	<2	<2	<2	<2	<2	<2	<2	<2	<2	MIC [22]: 12.5 µg/mL (≈ 24.5 µM); MIC [23]: 3.12 µg/mL (≈ 6.12 µM); MIC [24]: 3.12 µg/mL (≈ 6.12 µM); MIC [25]: 1.56 µg/mL (≈ 3.05 µM); MIC [26]: 3.12 µg/mL (≈ 6.12 µM); fold change (FC) [21]: <2
C=C[C@@](C)(/C=C/c1ccc(OCCCCN(C)CCCN(C)C)cc1)CCC=C(C)C	1.56 (≈ 3.66 µM)	1.56 (≈ 3.66 µM)	3.12 (≈ 7.32 µM)	3.12 (≈ 7.32 µM)	32.5	–	–	–	–	–	–	–	–	–	–	–	–	–	–	–	MIC [22]: 12.5 µg/mL (≈ 29.3 µM); MIC [23]: 1.56 µg/mL (≈ 3.66 µM); MIC [24]: 1.56 µg/mL (≈ 3.66 µM); MIC [25]: 1.56 µg/mL (≈ 3.66 µM); MIC [26]: 1.56 µg/mL (≈ 3.66 µM)
